Laboratory results as given in patent US7074789B2, “Kinase inhibitors” (Amgen Inc., priority 1999, dated 2006).
pIC50: −log10 of the molar value.

Experiments:
Type in all cases: biochemical
AKT = target: T1, AKT (Homo sapiens, UniProt Q9Y243); assay: Kinase inhibition assay (33P transfer), AKT; details: Table 2, class symbols A-E; read-out: AKT3-1
T1 construct: Kinases are expressed as either kinase domains or full length constructs; made in house
Outline: (§1)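 Measured by scintillation: radiolabelled phosphate added by tagged recombinant kinases to poly(Glu,Tyr) 4:1 or poly(Arg,Ser) 3:1 attached to microtiter wells, counted once free label was washed away with 0.5% phosphoric acid.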

Lck = target: T2, Lck (Homo sapiens, UniProt P06239); assay: Kinase inhibition assay (33P transfer), Lck; details: Table 3, class symbols; read-out: Lck-1
T2 construct: Kinases are expressed as either kinase domains or full length constructs; made in house
T2 sequence (P06239 whole entry, species assumed, the tested form may be a part): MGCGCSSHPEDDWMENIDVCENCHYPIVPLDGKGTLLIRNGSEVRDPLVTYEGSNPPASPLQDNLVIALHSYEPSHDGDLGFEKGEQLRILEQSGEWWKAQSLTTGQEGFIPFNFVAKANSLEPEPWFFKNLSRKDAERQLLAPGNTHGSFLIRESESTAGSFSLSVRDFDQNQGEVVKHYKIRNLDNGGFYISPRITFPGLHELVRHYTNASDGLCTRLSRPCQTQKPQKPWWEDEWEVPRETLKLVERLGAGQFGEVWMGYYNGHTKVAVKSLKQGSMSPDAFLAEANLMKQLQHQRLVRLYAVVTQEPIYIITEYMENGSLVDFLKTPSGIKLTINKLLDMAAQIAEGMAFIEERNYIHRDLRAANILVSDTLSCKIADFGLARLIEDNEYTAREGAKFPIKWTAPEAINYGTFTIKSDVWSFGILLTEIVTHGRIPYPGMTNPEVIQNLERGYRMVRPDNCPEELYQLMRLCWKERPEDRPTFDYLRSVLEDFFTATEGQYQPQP
Outline: as §1

Kdr = target: T3, Kdr (Homo sapiens, UniProt P35968); assay: Kinase inhibition assay (33P transfer), Kdr; details: Table 3, class symbols; read-out: KDR-1
T3 construct: Kinases are expressed as either kinase domains or full length constructs; made in house
T3 sequence (P35968 20-1356, species assumed): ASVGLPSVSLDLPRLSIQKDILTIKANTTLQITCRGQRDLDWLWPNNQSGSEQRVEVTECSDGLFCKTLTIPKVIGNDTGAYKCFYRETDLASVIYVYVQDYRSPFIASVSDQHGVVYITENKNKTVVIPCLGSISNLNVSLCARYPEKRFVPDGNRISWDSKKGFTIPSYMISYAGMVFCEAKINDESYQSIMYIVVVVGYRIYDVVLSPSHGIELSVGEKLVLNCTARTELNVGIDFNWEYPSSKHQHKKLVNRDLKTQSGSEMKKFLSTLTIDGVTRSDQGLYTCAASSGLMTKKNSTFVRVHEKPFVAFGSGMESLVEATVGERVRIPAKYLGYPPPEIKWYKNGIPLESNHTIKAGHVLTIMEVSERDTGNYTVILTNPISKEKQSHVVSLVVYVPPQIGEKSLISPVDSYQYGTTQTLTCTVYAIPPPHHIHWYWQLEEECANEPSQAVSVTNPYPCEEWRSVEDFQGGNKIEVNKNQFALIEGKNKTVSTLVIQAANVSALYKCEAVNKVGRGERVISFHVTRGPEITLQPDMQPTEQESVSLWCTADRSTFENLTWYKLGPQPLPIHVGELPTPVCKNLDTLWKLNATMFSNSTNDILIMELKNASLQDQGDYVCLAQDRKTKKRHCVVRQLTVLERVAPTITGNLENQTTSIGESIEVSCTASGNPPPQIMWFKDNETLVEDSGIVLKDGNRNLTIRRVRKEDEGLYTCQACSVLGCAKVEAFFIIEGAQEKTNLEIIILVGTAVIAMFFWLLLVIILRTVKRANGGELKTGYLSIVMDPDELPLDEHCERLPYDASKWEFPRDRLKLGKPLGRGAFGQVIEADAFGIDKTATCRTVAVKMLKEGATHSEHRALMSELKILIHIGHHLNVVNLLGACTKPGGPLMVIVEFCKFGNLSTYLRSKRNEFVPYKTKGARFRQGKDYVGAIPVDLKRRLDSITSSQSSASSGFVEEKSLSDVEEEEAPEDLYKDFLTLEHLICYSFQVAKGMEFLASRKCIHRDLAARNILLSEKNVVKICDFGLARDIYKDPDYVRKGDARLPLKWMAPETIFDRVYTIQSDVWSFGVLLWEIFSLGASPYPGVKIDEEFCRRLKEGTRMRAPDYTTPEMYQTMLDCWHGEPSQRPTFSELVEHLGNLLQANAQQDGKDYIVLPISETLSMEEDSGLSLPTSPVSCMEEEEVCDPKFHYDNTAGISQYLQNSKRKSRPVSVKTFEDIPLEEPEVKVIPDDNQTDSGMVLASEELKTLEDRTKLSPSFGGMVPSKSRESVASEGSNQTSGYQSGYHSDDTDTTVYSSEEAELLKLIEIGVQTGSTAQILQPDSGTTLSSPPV
Outline: as §1

c-Met = target: T4, c-Met (Homo sapiens, UniProt P08581); assay: Kinase inhibition assay (33P transfer), c-Met; details: Table 2, class symbols A-E; read-out: Met-1
T4 construct: Kinases are expressed as either kinase domains or full length constructs; made in house
Outline: (§2)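 Activity read as 33P incorporation from ATP into poly(Glu,Tyr) 4:1 or poly(Arg,Ser) 3:1 substrate bound to microtiter plates, measured by scintillation after acid washing. Enzymes were affinity-purified GST or polyHis fusions (kinase domain or full length) from E. coli or baculovirus; IC50 = 50% reduction in labelled phosphate.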

Zap-70 = target: T5, Zap-70 (Homo sapiens, UniProt P43403); assay: Kinase inhibition assay (33P transfer), Zap-70; details: Table 3, class symbols; read-out: Zap-1
T5 construct: Kinases are expressed as either kinase domains or full length constructs; made in house
T5 sequence (P43403 1-619): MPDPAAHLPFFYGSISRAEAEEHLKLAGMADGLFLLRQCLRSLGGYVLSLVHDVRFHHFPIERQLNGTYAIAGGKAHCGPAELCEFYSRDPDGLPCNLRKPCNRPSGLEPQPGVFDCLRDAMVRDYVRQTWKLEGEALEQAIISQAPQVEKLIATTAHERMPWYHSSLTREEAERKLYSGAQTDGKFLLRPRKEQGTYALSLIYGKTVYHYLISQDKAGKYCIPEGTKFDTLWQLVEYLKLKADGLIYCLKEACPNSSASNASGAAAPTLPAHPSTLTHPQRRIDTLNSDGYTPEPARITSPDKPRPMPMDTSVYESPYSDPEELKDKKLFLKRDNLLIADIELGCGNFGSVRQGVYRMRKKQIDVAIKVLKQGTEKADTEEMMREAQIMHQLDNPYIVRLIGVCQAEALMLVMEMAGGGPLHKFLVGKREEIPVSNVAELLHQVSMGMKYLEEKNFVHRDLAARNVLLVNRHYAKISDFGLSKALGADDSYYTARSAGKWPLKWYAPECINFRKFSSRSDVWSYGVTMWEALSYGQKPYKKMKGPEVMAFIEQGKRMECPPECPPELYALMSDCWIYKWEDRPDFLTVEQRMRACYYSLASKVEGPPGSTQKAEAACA
Outline: as §1

IGFR-1 = target: T6, IGFR-1 (Homo sapiens, UniProt P08069); assay: Kinase inhibition assay (33P transfer), IGFR-1; details: Table 2, class symbols A-E
T6 construct: Kinases are expressed as either kinase domains or full length constructs; made in house

EGFR = target: T7, EGFR (Homo sapiens, UniProt P00533); assay: Kinase inhibition assay (33P transfer), EGFR; details: Table 2, class symbols A-E; read-out: EGFR-1
T7 construct: Kinases are expressed as either kinase domains or full length constructs; made in house
T7 sequence (P00533 25-1210, species assumed): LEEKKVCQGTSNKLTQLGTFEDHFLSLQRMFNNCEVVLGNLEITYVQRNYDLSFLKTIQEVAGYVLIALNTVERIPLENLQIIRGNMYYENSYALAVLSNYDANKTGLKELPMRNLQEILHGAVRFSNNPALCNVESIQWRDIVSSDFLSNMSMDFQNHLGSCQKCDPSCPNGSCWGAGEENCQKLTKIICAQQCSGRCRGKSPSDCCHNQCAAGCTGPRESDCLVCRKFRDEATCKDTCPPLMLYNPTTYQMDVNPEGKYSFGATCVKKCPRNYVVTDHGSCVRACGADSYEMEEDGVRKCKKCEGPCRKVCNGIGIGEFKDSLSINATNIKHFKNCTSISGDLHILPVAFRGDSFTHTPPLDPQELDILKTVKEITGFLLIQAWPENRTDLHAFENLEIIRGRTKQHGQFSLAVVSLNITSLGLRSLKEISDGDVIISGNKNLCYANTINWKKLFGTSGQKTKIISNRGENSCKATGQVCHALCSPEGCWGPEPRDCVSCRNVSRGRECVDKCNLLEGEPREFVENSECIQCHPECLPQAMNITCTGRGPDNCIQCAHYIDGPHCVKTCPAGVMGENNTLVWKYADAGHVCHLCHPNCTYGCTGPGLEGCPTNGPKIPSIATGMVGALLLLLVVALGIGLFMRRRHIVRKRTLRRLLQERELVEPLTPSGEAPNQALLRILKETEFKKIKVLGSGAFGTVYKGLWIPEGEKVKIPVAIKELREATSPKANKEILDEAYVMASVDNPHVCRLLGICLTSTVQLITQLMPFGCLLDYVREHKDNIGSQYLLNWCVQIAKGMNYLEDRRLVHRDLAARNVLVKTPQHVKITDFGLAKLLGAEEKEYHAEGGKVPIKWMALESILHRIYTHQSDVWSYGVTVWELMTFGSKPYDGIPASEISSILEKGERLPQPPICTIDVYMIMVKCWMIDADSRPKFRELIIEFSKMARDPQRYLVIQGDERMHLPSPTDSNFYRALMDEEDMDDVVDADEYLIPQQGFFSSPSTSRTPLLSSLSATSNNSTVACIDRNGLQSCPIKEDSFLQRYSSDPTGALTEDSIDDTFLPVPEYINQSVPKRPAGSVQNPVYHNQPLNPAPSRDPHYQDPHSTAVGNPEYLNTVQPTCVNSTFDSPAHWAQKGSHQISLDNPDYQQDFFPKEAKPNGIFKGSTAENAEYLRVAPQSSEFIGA
Outline: as §2

Itk = target: T8, Itk (Homo sapiens, UniProt Q08881); assay: Kinase inhibition assay (33P transfer), Itk; details: Table 3, class symbols; read-out: Itk-1
T8 construct: Kinases are expressed as either kinase domains or full length constructs; made in house
T8 sequence (Q08881 1-620): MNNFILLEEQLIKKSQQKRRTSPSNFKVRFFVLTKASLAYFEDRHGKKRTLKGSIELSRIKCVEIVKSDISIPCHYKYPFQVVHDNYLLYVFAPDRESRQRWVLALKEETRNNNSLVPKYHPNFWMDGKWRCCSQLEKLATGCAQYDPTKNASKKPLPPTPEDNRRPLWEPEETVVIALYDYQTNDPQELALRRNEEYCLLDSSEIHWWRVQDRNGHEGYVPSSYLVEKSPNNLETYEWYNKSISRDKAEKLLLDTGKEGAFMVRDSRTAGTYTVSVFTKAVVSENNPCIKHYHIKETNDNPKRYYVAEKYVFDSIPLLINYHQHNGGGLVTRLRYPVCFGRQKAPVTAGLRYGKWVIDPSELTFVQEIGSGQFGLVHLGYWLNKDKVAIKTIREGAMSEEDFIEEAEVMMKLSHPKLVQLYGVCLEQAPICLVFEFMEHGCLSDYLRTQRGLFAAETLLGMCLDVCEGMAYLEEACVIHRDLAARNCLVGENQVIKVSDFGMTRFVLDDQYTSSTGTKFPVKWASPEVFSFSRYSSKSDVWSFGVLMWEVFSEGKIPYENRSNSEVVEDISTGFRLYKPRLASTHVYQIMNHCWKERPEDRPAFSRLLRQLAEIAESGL
Outline: as §2

ErbB2 = target: T9, ErbB2 (Homo sapiens, UniProt P04626); assay: Kinase inhibition assay (33P transfer), ErbB2; details: read-out: ErbB2-2
T9 construct: Kinases are expressed as either kinase domains or full length constructs; made in house
T9 sequence (P04626 23-1255, species assumed): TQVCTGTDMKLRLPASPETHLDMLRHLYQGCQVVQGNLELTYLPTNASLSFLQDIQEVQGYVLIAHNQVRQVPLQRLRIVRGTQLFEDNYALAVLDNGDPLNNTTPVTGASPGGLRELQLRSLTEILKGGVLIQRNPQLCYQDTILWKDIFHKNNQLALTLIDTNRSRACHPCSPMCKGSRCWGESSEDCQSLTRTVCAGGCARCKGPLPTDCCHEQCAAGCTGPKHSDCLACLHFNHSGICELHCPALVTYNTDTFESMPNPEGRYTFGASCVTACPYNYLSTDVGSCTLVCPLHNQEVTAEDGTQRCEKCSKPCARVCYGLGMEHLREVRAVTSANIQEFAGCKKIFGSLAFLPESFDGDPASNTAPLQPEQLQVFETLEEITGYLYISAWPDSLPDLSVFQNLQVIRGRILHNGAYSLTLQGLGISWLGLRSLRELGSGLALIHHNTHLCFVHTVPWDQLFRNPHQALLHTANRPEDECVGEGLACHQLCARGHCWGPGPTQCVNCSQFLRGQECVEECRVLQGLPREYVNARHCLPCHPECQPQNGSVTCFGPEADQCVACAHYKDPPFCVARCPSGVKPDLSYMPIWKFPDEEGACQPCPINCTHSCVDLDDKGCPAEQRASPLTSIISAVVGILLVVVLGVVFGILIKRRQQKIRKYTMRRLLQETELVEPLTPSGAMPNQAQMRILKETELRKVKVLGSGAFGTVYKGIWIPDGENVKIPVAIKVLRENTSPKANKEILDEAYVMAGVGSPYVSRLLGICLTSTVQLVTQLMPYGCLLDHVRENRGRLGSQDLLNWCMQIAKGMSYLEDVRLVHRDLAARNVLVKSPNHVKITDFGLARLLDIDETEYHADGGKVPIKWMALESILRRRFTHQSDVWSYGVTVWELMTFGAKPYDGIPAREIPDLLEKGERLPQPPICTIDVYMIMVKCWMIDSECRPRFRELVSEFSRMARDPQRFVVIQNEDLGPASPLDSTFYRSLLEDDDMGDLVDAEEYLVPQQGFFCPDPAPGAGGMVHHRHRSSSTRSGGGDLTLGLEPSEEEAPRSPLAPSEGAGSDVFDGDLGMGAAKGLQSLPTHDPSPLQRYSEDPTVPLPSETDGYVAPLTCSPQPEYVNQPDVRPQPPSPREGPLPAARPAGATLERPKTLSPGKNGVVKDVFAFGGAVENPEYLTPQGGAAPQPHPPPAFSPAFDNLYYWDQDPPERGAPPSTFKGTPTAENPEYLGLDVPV
Outline: as §2

PDGFRB = target: T10, PDGFRB (Homo sapiens, UniProt P09619); assay: Kinase inhibition assay (33P transfer), PDGFRB; details: read-out: PDGFRB-1
T10 construct: Kinases are expressed as either kinase domains or full length constructs; made in house

T1 sequence (Q9Y243 whole entry, the tested form may be a part): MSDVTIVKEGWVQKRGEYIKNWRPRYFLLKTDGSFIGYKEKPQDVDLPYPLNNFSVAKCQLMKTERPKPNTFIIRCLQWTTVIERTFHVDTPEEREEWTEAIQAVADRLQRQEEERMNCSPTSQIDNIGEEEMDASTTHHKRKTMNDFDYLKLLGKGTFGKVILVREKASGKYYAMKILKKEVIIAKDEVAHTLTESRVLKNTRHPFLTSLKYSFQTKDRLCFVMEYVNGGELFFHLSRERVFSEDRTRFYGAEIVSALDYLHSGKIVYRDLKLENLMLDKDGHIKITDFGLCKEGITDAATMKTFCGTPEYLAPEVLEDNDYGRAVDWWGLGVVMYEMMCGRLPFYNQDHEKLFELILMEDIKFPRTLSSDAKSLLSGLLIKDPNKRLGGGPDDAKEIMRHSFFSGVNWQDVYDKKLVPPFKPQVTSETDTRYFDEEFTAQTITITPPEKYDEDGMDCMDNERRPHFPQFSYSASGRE

Row | pIC50 (AKT) | pIC50 (Lck) | pIC50 (Kdr) | pIC50 (c-Met) | pIC50 (Zap-70) | pIC50 (IGFR-1) | pIC50 (EGFR) | pIC50 (Itk) | pIC50 (ErbB2) | pIC50 (PDGFRB) | SMILES
1 | < 5.02 | < 5.02 | 5.13 to 5.29 | 5.29 to 6.07 | < 5.02 | < 5.02 | 5.29 to 6.07 | < 5.02 | 5.13 to 5.29 | 5.29 to 6.07 | COC(=O)c1ccc(-c2cc(Nc3ncnc(Nc4cc(=O)n(-c5ccccc5)[nH]4)n3)[nH]n2)cc1 [Compound 880]
2 | < 4.89 | < 4.89 | < 4.89 | < 4.89 | < 4.89 | 5.17 to 5.94 | 4.89 to 5.00 | < 4.89 | < 4.89 | < 4.89 | Fc1ccc(CNc2ncnc(Nc3cc(-c4ccco4)n[nH]3)n2)cc1 [Compound 996]
3 | < 4.99 | 5.09 to 5.26 | > 6.04 | 5.09 to 5.26 | < 4.99 | < 4.99 | 5.26 to 6.04 | 5.09 to 5.26 | < 4.99 | > 6.04 | c1ccc(CNc2ncccc2-c2ncnc(Nc3cccc(Cn4ccnn4)c3)n2)cc1 [Compound 1101]
4 | < 4.94 | < 4.94 | < 4.94 | < 4.94 | < 4.94 | 5.05 to 5.21 | 5.05 to 5.21 | < 4.94 | < 4.94 | 4.94 to 5.05 | COc1ccc(Nc2ncnc(Nc3cc(Cl)cc(Cl)c3)n2)cc1OC [Compound 898]
5 | < 4.89 | < 4.89 | < 4.89 | < 4.89 | < 4.89 | < 4.89 | > 5.94 | 5.00 to 5.16 | < 4.89 | > 5.94 | COc1ccc(Nc2ncnc(Nc3cccc(C#N)c3)n2)cc1OC [Compound 897]
6 | < 4.97 | < 4.97 | < 4.97 | < 4.97 | < 4.97 | < 4.97 | 5.08 to 5.25 | < 4.97 | < 4.97 | 5.25 to 6.03 | COC(=O)c1ccc(-c2cc(Nc3ncnc(NCCN4CCOCC4)n3)[nH]n2)cc1 [Compound 808]
7 | < 4.97 | < 4.97 | 5.24 to 6.02 | 4.97 to 5.08 | < 4.97 | < 4.97 | < 4.97 | < 4.97 | < 4.97 | 5.24 to 6.02 | COc1ccc(Nc2ncnc(N(C)c3ccc(S(=O)(=O)O)cc3)n2)cc1OC [Compound 798]
8 | 5.24 to 6.02 | < 4.97 | > 6.02 | 5.24 to 6.02 | 5.08 to 5.24 | 5.24 to 6.02 | 5.24 to 6.02 | 5.24 to 6.02 | 5.24 to 6.02 | > 6.02 | O=C(O)CNC(=O)c1ccc(Nc2ncnc(Nc3cc(-c4ccco4)[nH]n3)n2)cc1 [Compound 884]
9 | 5.21 to 5.99 | 5.21 to 5.99 | > 5.99 | > 5.99 | < 4.94 | > 5.99 | > 5.99 | 5.05 to 5.21 | 5.21 to 5.99 | 5.21 to 5.99 | O=C(O)CCc1cccc(Nc2ncnc(Nc3cc(-c4ccco4)[nH]n3)n2)c1 [Compound 887]
10 | < 5.04 | 5.15 to 5.31 | > 6.09 | < 5.04 | < 5.04 | < 5.04 | 5.31 to 6.09 | 5.04 to 5.15 | 5.15 to 5.31 | > 6.09 | Fc1cccc(CNc2nc3ccccc3n2-c2ncnc(Nc3cccc(Cn4ccnn4)c3)n2)c1 [Compound 964]
11 | < 4.99 | 5.26 to 6.04 | 5.26 to 6.04 | 5.26 to 6.04 | < 4.99 | > 6.04 | 4.99 to 5.10 | 5.26 to 6.04 | 5.26 to 6.04 | < 4.99 | COc1cc(C)c(Nc2ncnc(Nc3cc(-c4ccc(Cl)cc4)n[nH]3)n2)cc1OC [Compound 1128]
